Results as given in US10980805B2, “Aza-pyridone compounds and uses thereof” (Janssen BioPharma, Inc., priority 2013, dated 2021).

Legend:
[1] = system: Influenza strain A549_A/WSN/33 (H1N1); assay: Influenza antiviral assay (neuraminidase fluorescence readout); assay type: cell-based, Influenza virus; conditions: Influenza A virus, read-out: % Inhibition (EC50 class, Table 2)
[2] = biological target: Full length EN PA (influenza PA endonuclease) (Influenza A virus, UniProt P15659); assay: EN PA FRET inhibition assay; assay type: biochemical; conditions: FRET probe, mean of a minimum of two independent experiments, read-out: Potency (IC50 class, Table 3)

Row | Structure (SMILES) | EC50 [1] [µM] | IC50 [2] [µM]
1 | CC(C)C(=O)Oc1c2n(ncc1=O)[C@H](C1c3cccc(F)c3CCc3c(F)cccc31)CN(C(C)C)C2=O [Compound 114-B] | < 20 | ≥ 1
2 | CC(C)N1C[C@@H]([C@@H](c2ccccc2)c2ccccn2)n2ncc(=O)c(O)c2C1=O [Compound 138] | < 20 | < 0.25
3 | CC(N)C(=O)OCOc1c2n(ncc1=O)[C@@H](C(c1ccccc1)c1ccccc1)CN(C(C)C)C2=O (stereo partly drawn) [Compound 106-A] | < 20 | < 0.25
4 | C[C@H](N1C[C@H](C(c2ccccc2)c2ccccc2)n2ncc(=O)c(O)c2C1=O)C(F)(F)F [Compound 18-A] | < 20 | < 0.25
5 | CCN1C[C@H]([C@@H](c2ccccc2)c2cccc(Cl)c2)n2ncc(=O)c(OC(=O)C(C)C)c2C1=O [Compound 67-A] | < 20 | < 0.25
6 | CC(C)N1C[C@H]([C@@H](c2ccccc2)c2ccccn2)n2ncc(=O)c(O)c2C1=O [Compound 132] | < 20 | < 0.25
7 | CCN1CC(C(c2ccccc2)c2cccc(Cl)c2)n2ncc(=O)c(O)c2C1=O (stereo not drawn) [Compound 12] | < 20 | < 0.25
8 | CN1C[C@@H](C(c2ccccc2)c2ccccc2)n2ncc(=O)c(O)c2C1=O [Compound 1-B] | < 20 | 0.25 to 1
9 | CC(C)C(=O)Oc1c2n(ncc1=O)[C@@H](C(c1cccc(F)c1)c1cccc(F)c1)CN(C(C)C)C2=O [Compound 70-A] | < 20 | < 0.25
10 | CC(C)N1CC(C(c2ccccc2)c2cccc(Cl)c2)n2ncc(=O)c(O)c2C1=O (stereo not drawn) [Compound 20] | < 20 | < 0.25
11 | CCN1CC(C(c2cccc(C)c2)c2cccc(C)c2)n2ncc(=O)c(O)c2C1=O (stereo not drawn) [Compound 36] | < 20 | < 0.25
12 | CN1CC(C2c3cc(Cl)ccc3CCc3ccc(Cl)cc32)n2ncc(=O)c(O)c2C1=O (stereo not drawn) [Compound 52] | < 20 | < 0.25
13 | O=C1c2c(O)c(=O)cnn2[C@@H](C(c2ccccc2)c2ccccc2)CN1C1CCOCC1 [Compound 63-A] | < 20 | < 0.25
14 | CN1CC(C(c2ccccc2)c2cccc(Cl)c2)n2ncc(=O)c(O)c2C1=O (stereo not drawn) [Compound 9] | < 20 | < 0.25
15 | CC(C)CC(=O)Oc1c2n(ncc1=O)[C@@H](C(c1ccccc1)c1ccccc1)CN(C(C)C)C2=O [Compound 118] | < 20 | 0.25 to 1
16 | CCN1C[C@H](C(c2cccc(F)c2)c2cccc(F)c2)n2ncc(=O)c(OC(=O)C(C)C)c2C1=O [Compound 72-A] | < 20 | < 0.25
17 | CC(C)N1CC(C(c2ccccc2)n2ccc(C#N)n2)n2ncc(=O)c(O)c2C1=O (stereo not drawn) [Compound 127] | < 20 | < 0.25
18 | CC(C)N1C[C@@H](C(c2ccccc2)c2ccccc2)n2ncc(=O)c(OCOC(=O)C(C)(C)N)c2C1=O [Compound 113-B] | 20 to 100 | 0.25 to 1
19 | CC(C)N1CC(C(c2ccccc2)c2cccc(-c3ccccc3)c2)n2ncc(=O)c(O)c2C1=O (stereo not drawn) [Compound 78] | < 20 | < 0.25
20 | CN1CC(C(c2ccc(Cl)cc2)c2cccc(Cl)c2)n2ncc(=O)c(O)c2C1=O (stereo not drawn) [Compound 60] | < 20 | < 0.25
21 | CC(C)N1CC(C2c3ccccc3CSc3ccccc32)n2ncc(=O)c(O)c2C1=O (stereo not drawn) [Compound 121] | < 20 | < 0.25

Row | Structure (SMILES) | EC50 [1] [µM] | IC50 [2] [µM]
22 | C#Cc1ccn([C@@H](c2ccccc2)[C@@H]2CN(C)C(=O)c3c(O)c(=O)cnn32)n1 [Compound 109-D] | < 20 | 0.25 to 1
23 | O=C1c2c(O)c(=O)cnn2C(C(c2ccccc2)c2ccccc2)CN1C1CCOCC1 (stereo not drawn) [Compound 63] | < 20 | < 0.25
24 | CC#Cc1ccn([C@@H](c2ccccc2)[C@H]2CN(C)C(=O)c3c(O)c(=O)cnn32)n1 [Compound 115-B] | < 20 | < 0.25
25 | O=C1NCC(C(c2ccccc2)c2ccccc2)n2ncc(=O)c(O)c21 (stereo not drawn) [Compound 8] | < 20 | < 0.25
26 | CCC#Cc1ccn([C@@H](c2ccccc2)[C@@H]2CN(C)C(=O)c3c(O)c(=O)cnn32)n1 [Compound 125] | < 20 | < 0.25
27 | CN1C[C@H](C2c3ccc(F)cc3CCc3cc(F)ccc32)n2ncc(=O)c(O)c2C1=O [Compound 89-A] | < 20 | < 0.25
28 | [2H]c1c([2H])c([2H])c(C(c2c([2H])c([2H])c([2H])c([2H])c2[2H])[C@H]2CN(C(C)C)C(=O)c3c(O)c(=O)cnn32)c([2H])c1[2H] [Compound 129] | < 20 | < 0.25
29 | CN1CC(C(c2cccc(Cl)c2)c2cccc(Cl)c2)n2ncc(=O)c(O)c2C1=O (stereo not drawn) [Compound 28] | < 20 | < 0.25
30 | CN1CC(C2c3ccc(Cl)cc3CCc3cc(Cl)ccc32)n2ncc(=O)c(O)c2C1=O (stereo not drawn) [Compound 31] | < 20 | < 0.25
31 | CC(C)N1C[C@H]([C@@H](c2ccccc2)n2ccc(C#N)n2)n2ncc(=O)c(O)c2C1=O [Compound 127-B] | < 20 | < 0.25
32 | CN1C[C@H]([C@H](c2ccccc2)n2cnc(I)c2)n2ncc(=O)c(O)c2C1=O [Compound 107-B] | 20 to 100 | < 0.25
33 | CN1C[C@H](C2c3ccccc3CCc3cccnc32)n2ncc(=O)c(O)c2C1=O (stereo partly drawn) [Compound 42-A] | < 20 | < 0.25
34 | CN1CC(C(c2cccc(Cl)c2)c2ccccc2F)n2ncc(=O)c(O)c2C1=O (stereo not drawn) [Compound 62] | < 20 | < 0.25
35 | CC(N1CC(C(c2ccccc2)c2ccccc2)n2ncc(=O)c(O)c2C1=O)C(F)(F)F (stereo not drawn) [Compound 18] | < 20 | < 0.25
36 | CCN1C[C@@H](C(c2ccccc2)c2ccccc2)n2ncc(=O)c(O)c2C1=O [Compound 5-B] | < 20 | 0.25 to 1
37 | CC(C)N1C[C@@H](C(c2ccccc2)c2ccccc2)n2ncc(=O)c(O)c2C1=O [Compound 6-B] | < 20 | 0.25 to 1
38 | CN1CC(C2c3cc(F)ccc3CCc3ccc(F)cc32)n2ncc(=O)c(O)c2C1=O (stereo not drawn) [Compound 45] | < 20 | < 0.25
39 | CN1C[C@@H](C2c3ccc(F)cc3CCc3cc(F)ccc32)n2ncc(=O)c(O)c2C1=O [Compound 89-B] | < 20 | < 0.25
40 | CN1C[C@H](C2c3cc(Cl)ccc3CCc3ccc(Cl)cc32)n2ncc(=O)c(O)c2C1=O [Compound 52-B] | < 20 | < 0.25
41 | C#Cc1ccn([C@H](c2ccccc2)[C@H]2CN(C)C(=O)c3c(O)c(=O)cnn32)n1 [Compound 109-C] | < 20 | < 0.25
42 | CN1C[C@@H](C2c3ccccc3CCc3cccnc32)n2ncc(=O)c(O)c2C1=O (stereo partly drawn) [Compound 42-B] | 20 to 100 | 0.25 to 1

Row | Structure (SMILES) | EC50 [1] [µM] | IC50 [2] [µM]
43 | Cc1cccc(C(c2cccc(C)c2)C2CN(C)C(=O)c3c(O)c(=O)cnn32)c1 (stereo not drawn) [Compound 25] | < 20 | < 0.25
44 | CN1C[C@H]([C@@H](c2ccccc2)n2cnc(I)c2)n2ncc(=O)c(O)c2C1=O [Compound 107-A] | 20 to 100 | < 0.25
45 | CN1CC(C2c3ccccc3CCc3cc(Cl)ccc32)n2ncc(=O)c(O)c2C1=O (stereo not drawn) [Compound 29] | < 20 | < 0.25
46 | CC(C)N1C[C@H](C(c2ccccc2)c2ccccc2)n2ncc(=O)c(OC(=O)C3CCOCC3)c2C1=O [Compound 120] | < 20 | < 0.25
47 | CN1CC(C2c3ccccc3COc3ccccc32)n2ncc(=O)c(O)c2C1=O (stereo not drawn) [Compound 57] | < 20 | < 0.25
48 | CCCN1C[C@H](C(c2ccccc2)c2ccccc2)n2ncc(=O)c(O)c2C1=O [Compound 37-A] | < 20 | < 0.25
49 | CN1C[C@H]([C@H](c2ccccc2)n2ccnc2)n2ncc(=O)c(O)c2C1=O [Compound 108-B] | 20 to 100 | < 0.25
50 | CC(C)N1C[C@@H](C(c2cccc(Cl)c2)c2cccc(Cl)c2)n2ncc(=O)c(O)c2C1=O [Compound 68-B] | < 20 | 0.25 to 1
51 | C[C@@H](N1C[C@@H](C(c2ccccc2)c2ccccc2)n2ncc(=O)c(O)c2C1=O)C(F)(F)F [Compound 18-B] | < 20 | < 0.25
52 | CC(C)Oc1cccc(C(c2ccccc2)[C@H]2CN(C)C(=O)c3c(O)c(=O)cnn32)c1 (stereo partly drawn) [Compound 54] | 20 to 100 | < 0.25
53 | CN1C[C@H]([C@@H](c2ccccc2)c2cccc(OC3CC3)c2)n2ncc(=O)c(O)c2C1=O [Compound 105-A] | < 20 | < 0.25
54 | O=C1c2c(O)c(=O)cnn2[C@H](C(c2ccccc2)c2ccccc2)CN1C1CCOCC1 [Compound 63-B] | < 20 | 0.25 to 1
55 | CN1CC(C(c2ccccc2)c2ccccc2)n2ncc(=O)c(O)c2C1=O (stereo not drawn) [Compound 1] | < 20 | < 0.25
56 | CC(C)N1CC(C(c2ccccc2)c2cccc(F)c2)n2ncc(=O)c(O)c2C1=O (stereo not drawn) [Compound 47] | < 20 | < 0.25
57 | CN1C[C@@H](C2c3ccc(Cl)cc3CCc3cc(Cl)ccc32)n2ncc(=O)c(O)c2C1=O [Compound 46-B] | 20 to 100 | < 0.25
58 | CCC#Cc1ccn([C@@H](c2ccccc2)[C@H]2CN(C)C(=O)c3c(O)c(=O)cnn32)n1 [Compound 123] | < 20 | < 0.25
59 | CN1CC(C(c2ccccc2)c2cccc(OCC3CC3)c2)n2ncc(=O)c(O)c2C1=O (stereo not drawn) [Compound 55] | 20 to 100 | < 0.25
60 | C#Cc1ccn([C@@H](c2ccccc2)[C@H]2CN(C)C(=O)c3c(O)c(=O)cnn32)n1 [Compound 109-B] | < 20 | < 0.25
61 | CN1CC(C(Cc2ccccc2)c2ccccc2)n2ncc(=O)c(O)c2C1=O (stereo not drawn) [Compound 103] | 20 to 100 | < 0.25
62 | CCN1C[C@H](C(c2ccccc2)c2ccccc2)n2ncc(=O)c(O)c2C1=O [Compound 5-A] | < 20 | < 0.25
63 | CN1CC(Cc2ccccc2-c2ccccc2)n2ncc(=O)c(O)c2C1=O (stereo not drawn) [Compound 19] | < 20 | < 0.25
